Reference: paper PMC12655527, “An Investigational Study on the Role of ADME Agents’ Genetic Variation on DD217 Pharmacokinetics and Safety Profile” (Pharmaceuticals, 2025)

Test system: patients undergoing knee replacement surgery
Experiment: Thromboembolic complications (DVT/PE) during 14-day therapy, phase II trial
Assay type: in vivo, human
Settings: for With DVT/PE / Without DVT/PE: 40 mg/day, number of patients; for cases of DVT/PE / PE/DVT, n (safety outcomes): 14 days
Excerpt: The design, eligibility criteria, and outcomes of the phase II clinical trial evaluating the safety and tolerability of DD217 (NCT05189002, ClinicalTrials.gov) have been described previously. Briefly, this was a multicenter, double-blind, randomized, prospective phase II study designed to determine the optimal dosing regimen and to assess the safety and efficacy of DD217 for the prevention of venous thromboembolism (VTE) in patients undergoing knee replacement surgery. Patients were randomized into one of three groups: two groups received oral DD217 at doses of 40 mg or 60 mg once daily, starting on the morning of the first postoperative day, and one group received the active comparator, dalteparin sodium. The treatment duration was 14 days.
In total, seven cases of DVT/PE were documented during the trial: four in the DD217 40 mg/day group, one in the DD217 60 mg/day group, and two in the dalteparin sodium group. In addition, two bleeding events were recorded: one clinically relevant non-major bleed in the DD217 60 mg/day group and one clinically non-relevant minor bleed in the dalteparin sodium group.

CC(=N)N(C)c1ccc(C(=O)Nc2ccc(C)cc2C(=O)Nc2ccc(Cl)cn2)cc1.Cl [DD217, N-(5-chloropyridin-2-yl)-5-methyl-2-[4-(N-methylacetimidamido)benzamido]benzamide hydrochloride]
With DVT/PE (ABCB1 rs1045642 C/C (n 5)): 3 | Without DVT/PE (ABCB1 rs1045642 C/C (n 5)): 2 | With DVT/PE (ABCB1 rs1045642 T/C (n 7)): 1 | Without DVT/PE (ABCB1 rs1045642 T/C (n 7)): 6 | With DVT/PE (ABCB1 rs1045642 T/T (n 4)): 0 | Without DVT/PE (ABCB1 rs1045642 T/T (n 4)): 4 | With DVT/PE (ABCB1 rs1128503 C/C (n 8)): 3 | Without DVT/PE (ABCB1 rs1128503 C/C (n 8)): 5 | With DVT/PE (ABCB1 rs1128503 C/T (n 6)): 1 | Without DVT/PE (ABCB1 rs1128503 C/T (n 6)): 5 | With DVT/PE (ABCB1 rs1128503 T/T (n 2)): 0 | Without DVT/PE (ABCB1 rs1128503 T/T (n 2)): 2 | With DVT/PE (ABCB1 rs2032582 G/G (n 8)): 3 | Without DVT/PE (ABCB1 rs2032582 G/G (n 8)): 5 | With DVT/PE (ABCB1 rs2032582 G/T (n 6)): 1 | Without DVT/PE (ABCB1 rs2032582 G/T (n 6)): 5 | With DVT/PE (ABCB1 rs2032582 T/T (n 2)): 0 | Without DVT/PE (ABCB1 rs2032582 T/T (n 2)): 2 | With DVT/PE (ABCB1 rs4148738 C/C (n 2)): 0 | Without DVT/PE (ABCB1 rs4148738 C/C (n 2)): 2 | With DVT/PE (ABCB1 rs4148738 T/C (n 6)): 1 | Without DVT/PE (ABCB1 rs4148738 T/C (n 6)): 5 | With DVT/PE (ABCB1 rs4148738 T/T (n 8)): 3 | Without DVT/PE (ABCB1 rs4148738 T/T (n 8)): 5 | cases of DVT/PE (DD217 40 mg/day group (n = 16)): four | PE/DVT, n (safety outcomes) (DD217 40 mg/day oral, of 16 patients): 4 n | cases of DVT/PE (DD217 60 mg/day group (n = 18)): one | PE/DVT, n (safety outcomes) (DD217 60 mg/day oral, of 18 patients): 1 n
